According to US20240228502A1, “2-PHENYLAMINO PYRROLOPYRIMIDINES AS ACK1 INHIBITORS” (H. LEE MOFFITT CANCER CENTER AND RESEARCH INSTITUTE, INC., priority 2021, published 2024):

What was measured:
ACK1 [1] = biological target: T1, ACK1 (Homo sapiens, UniProt Q07912); experiment: ACK1 inhibition (ACK1 IC50); type: biochemical
UKE1 = experiment: Cell viability, UKE1; type: cell-based
MDA-MB-231 = experiment: Cell viability, MDA-MB-231; type: cell-based
ACK1 [2] = biological target: T1, ACK1; experiment: DSF = Differential Scanning Fluorimetry, thermal shift; type: binding
[3] = Homo sapiens, MDA-MB-231, MDA-MB-231

T1 sequence (Q07912 whole entry): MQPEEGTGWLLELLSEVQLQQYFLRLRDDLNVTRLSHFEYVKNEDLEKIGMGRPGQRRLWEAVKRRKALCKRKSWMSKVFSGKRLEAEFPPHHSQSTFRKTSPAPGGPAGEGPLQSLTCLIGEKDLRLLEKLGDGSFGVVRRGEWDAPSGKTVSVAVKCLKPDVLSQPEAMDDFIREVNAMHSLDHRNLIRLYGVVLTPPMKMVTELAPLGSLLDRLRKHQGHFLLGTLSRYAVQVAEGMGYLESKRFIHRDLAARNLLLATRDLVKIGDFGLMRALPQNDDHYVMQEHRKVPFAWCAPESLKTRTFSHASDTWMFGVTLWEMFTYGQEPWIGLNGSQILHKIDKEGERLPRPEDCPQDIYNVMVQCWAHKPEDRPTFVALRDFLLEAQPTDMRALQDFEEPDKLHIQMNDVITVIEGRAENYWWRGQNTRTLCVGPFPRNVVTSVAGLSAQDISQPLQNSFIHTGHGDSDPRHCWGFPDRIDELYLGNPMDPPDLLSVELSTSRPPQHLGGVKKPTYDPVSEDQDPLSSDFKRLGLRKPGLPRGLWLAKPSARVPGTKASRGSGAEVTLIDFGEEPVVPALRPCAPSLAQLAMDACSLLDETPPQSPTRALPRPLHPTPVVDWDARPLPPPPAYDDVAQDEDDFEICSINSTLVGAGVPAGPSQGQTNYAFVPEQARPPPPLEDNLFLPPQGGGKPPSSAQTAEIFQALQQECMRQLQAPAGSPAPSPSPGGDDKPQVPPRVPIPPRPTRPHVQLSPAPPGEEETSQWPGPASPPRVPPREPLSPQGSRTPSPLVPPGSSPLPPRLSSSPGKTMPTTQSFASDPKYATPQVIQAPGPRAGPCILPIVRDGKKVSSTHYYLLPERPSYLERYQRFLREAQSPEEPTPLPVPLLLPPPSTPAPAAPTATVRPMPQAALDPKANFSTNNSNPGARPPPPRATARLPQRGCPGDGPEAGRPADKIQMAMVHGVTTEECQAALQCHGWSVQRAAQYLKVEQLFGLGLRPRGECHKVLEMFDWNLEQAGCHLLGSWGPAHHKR

SMILES	IC50 (ACK1 [1]) [nM]	DSF (ΔTm (° C.)) (ACK1 [2]) [°C]	also measured
CN1CCN(c2ccc(Nc3ncc4ccn(CC5CCOCC5)c4n3)cc2)CC1	< 250		
CN1CCN(c2cccc(Nc3ncc4ccn(CC5CCOCC5)c4n3)c2)CC1	< 500		
COc1cc(N2CCN(C)CC2)ccc1Nc1ncc2ccn(CC3CCOCC3)c2n1	< 250		
Cc1cn(CC2CCCO2)c2nc(Nc3ccc(N4CCN(C)CC4)cc3)ncc12 (stereo not drawn)	< 250		
CN1CCN(c2ccc(Nc3ncc4ccn(CC5CCCO5)c4n3)cc2)CC1 (stereo not drawn)	< 250		
COc1cc(N2CCN(C)CC2)ccc1Nc1ncc2ccn(CC3CCCO3)c2n1 (stereo not drawn)	< 250		
COc1cc(N2CCN(C)CC2)ccc1Nc1ncc2c(F)cn(CC3CCCO3)c2n1 (stereo not drawn)	< 250		
CC(C)Oc1cc(Nc2ncc3c(F)cn(CC4CCCO4)c3n2)ccc1C1CCN(C)CC1 (stereo not drawn)	< 250		
CC(C)Oc1cc(Nc2ncc3ccn(CC4CCOCC4)c3n2)ccc1N1CCN(C)CC1	< 250		EC50 (UKE1; UKE1, UKE1): 3100 nM; EC50 (MDA-MB-231; [3]): 3500 nM
CN1CCN(c2ccc(Nc3ncc4ccn(CC5CCOCC5)c4n3)c(OC3CCC3)c2)CC1	< 250		
Cn1cc(-c2ccc(Nc3ncc4ccn(CC5CCOCC5)c4n3)cc2)cn1	< 250		
CC(C)Oc1cc(Nc2ncc3ccn(CC4CCCO4)c3n2)ccc1N1CCN(C)CC1 (stereo not drawn)	< 250		EC50 (UKE1; UKE1, UKE1): 1100 nM; EC50 (MDA-MB-231; [3]): 2000 nM
CN1CCN(c2ccc(Nc3ncc4ccn(CC5CCCO5)c4n3)c(OC3CCC3)c2)CC1 (stereo not drawn)	< 250		
Cn1cc(-c2ccc(Nc3ncc4ccn(CC5CCCO5)c4n3)cc2)cn1 (stereo not drawn)	< 250		
COc1cc(Nc2ncc3ccn(CC4CCCO4)c3n2)ccc1-c1cnn(C)c1 (stereo not drawn)	< 250		
Cc1cn(CC2CCCO2)c2nc(Nc3ccc(N4CCN(C)CC4)c(OC(C)C)c3)ncc12 (stereo not drawn)	< 250		
Cc1cn(CC2CCCO2)c2nc(Nc3ccc(-c4cnn(C)c4)c(OC(C)C)c3)ncc12 (stereo not drawn)	< 500	2.1	
Cc1cn(CC2CCOCC2)c2nc(Nc3ccc(N4CCN(C)CC4)c(OC(C)C)c3)ncc12	< 250		
Cc1cn(CC2CCOCC2)c2nc(Nc3ccc(-c4cnn(C)c4)c(OC(C)C)c3)ncc12	< 250		
COc1cc(Nc2ncc3c(C)cn(CC4CCOCC4)c3n2)ccc1-c1cnn(C)c1	< 250		

SMILES	IC50 (ACK1 [1]) [nM]	DSF (ΔTm (° C.)) (ACK1 [2]) [°C]	also measured
CN1CCN(c2ccc(Nc3ncc4ccn(CC5CCCO5)c4n3)cc2OCCO)CC1 (stereo not drawn)	< 250	5.3	EC50 (UKE1; UKE1): 710 nM; EC50 (UKE1; UKE1, UKE1): 1280 nM; EC50 (MDA-MB-231; [3]): 720 nM; EC50 (MDA-MB-231; MDA-MB-231): 1280 nM
CC(C)COc1cc(Nc2ncc3ccn(CC4CCCO4)c3n2)ccc1N1CCN(C)CC1 (stereo not drawn)	< 250		
CN1CCN(c2ccc(Nc3ncc4ccn(CC5CCCO5)c4n3)cc2OC2CCCC2)CC1 (stereo not drawn)	< 250		EC50 (UKE1; UKE1, UKE1): 2100 nM; EC50 (MDA-MB-231; [3]): 2100 nM; EC50 (MDA-MB-231; MDA-MB-231): 1050 nM
CN1CCN(c2ccc(Nc3ncc4ccn(CC5CCCO5)c4n3)cc2OC2CCC2)CC1 (stereo not drawn)	< 250		EC50 (UKE1; UKE1): 1500 nM; EC50 (UKE1; UKE1, UKE1): 1720 nM; EC50 (MDA-MB-231; [3]): 1500 nM; EC50 (MDA-MB-231; MDA-MB-231): 1710 nM
CC(C)Oc1cc(Nc2ncc3ccn(CCc4ccccc4)c3n2)ccc1-c1cnn(C)c1	< 750		
CC(C)Oc1cc(Nc2ncc3ccn(-c4cccc(NS(=O)(=O)C(C)C)c4)c3n2)ccc1-c1cnn(C)c1	< 250		
COc1cc(Nc2ncc3ccn(-c4cccc(NS(=O)(=O)C(C)C)c4)c3n2)ccc1-c1cnn(C)c1	< 250		
COc1cc(N2CCN(C)CC2)c(F)cc1Nc1ncc2ccn(C[C@H]3CCCO3)c2n1	< 250		
COc1cc(N2CCN(C)CC2)c(F)cc1Nc1ncc2ccn(CC3CCOCC3)c2n1	< 250		EC50 (UKE1; UKE1, UKE1): > 10000 nM; EC50 (MDA-MB-231; [3]): > 10000 nM
CC(C)Oc1cc(Nc2ncc3ccn(C[C@H]4CCCO4)c3n2)ccc1N1CCN(C)CC1	< 250	5.3	EC50 (UKE1; UKE1, UKE1): 1000 nM; EC50 (MDA-MB-231; [3]): 1100 nM
COc1cc(N2CCN(C)CC2)c(F)cc1Nc1ncc2ccn(CC3CCCO3)c2n1 (stereo not drawn)	< 250		
CC(C)Oc1cc(N2CCN(C)CC2)ccc1Nc1ncc2ccn(CCc3ccccc3)c2n1	< 1000		
COc1cc(N2CCN(C)CC2)c(F)cc1Nc1ncc2ccn(CCc3ccc(F)cc3)c2n1	< 250		
COc1ccccc1CCn1ccc2cnc(Nc3cc(F)c(N4CCN(C)CC4)cc3OC)nc21	< 250		
COc1cc(N2CCN(C)CC2)c(F)cc1Nc1ncc2ccn(CCc3ccccc3Cl)c2n1	< 250		
CN1CCN(c2cc(Cl)c(Nc3ncc4ccn(CC5CCCO5)c4n3)cc2F)CC1 (stereo not drawn)	< 250		
CN1CCN(c2cc(Cl)c(Nc3ncc4ccn(CC5CCOCC5)c4n3)cc2F)CC1	< 250	6.4	
COc1c(Nc2ncc3ccn(-c4ccc(NS(=O)(=O)C(C)C)cc4)c3n2)cc(F)c(N2CCN(C)CC2)c1F	< 250		
COc1c(Nc2ncc3ccn(CC4CCOCC4)c3n2)cc(F)c(N2CCN(C)CC2)c1F	> 1000		
COc1cc(N2CCN(C)CC2)ccc1Nc1ncc2ccn(-c3ccc(S(=O)(=O)NC(C)C)cc3)c2n1		8.1	

Second part, led by results:

IC50 (ACK1 [1]) [nM]	DSF (ΔTm (° C.)) (ACK1 [2]) [°C]	SMILES	also measured
< 250		CN1CCN(c2cccc(Nc3ncc4ccn(CC5CCCO5)c4n3)c2)CC1 (stereo not drawn)	
< 250	4.5	CC(C)Oc1cc(Nc2ncc3ccn(CCc4ccccc4)c3n2)ccc1N1CCN(C)CC1	EC50 (UKE1; UKE1, UKE1): 1800 nM; EC50 (MDA-MB-231; [3]): 3420 nM
< 250	5.2	CC(C)Oc1cc(Nc2ncc3ccn(-c4cccc(NS(=O)(=O)C(C)C)c4)c3n2)ccc1N1CCN(C)CC1	EC50 (UKE1; UKE1, UKE1): 310 nM; EC50 (MDA-MB-231; [3]): 164 nM
< 250	6.4	COc1cc(Nc2ncc3ccn(-c4cccc(NS(=O)(=O)C(C)C)c4)c3n2)ccc1N1CCN(C)CC1	EC50 (UKE1; UKE1, UKE1): 110 nM; EC50 (MDA-MB-231; [3]): 231 nM
< 250	6.4	CC(C)S(=O)(=O)Nc1cccc(-n2ccc3cnc(Nc4ccc(N5CCN(C)CC5)c(OCCO)c4)nc32)c1	EC50 (UKE1; UKE1, UKE1): 390 nM; EC50 (MDA-MB-231; [3]): 151 nM
< 250	4.8	COc1cc(N2CCN(C)CC2)c(F)cc1Nc1ncc2ccn(-c3cccc(NS(=O)(=O)C(C)C)c3)c2n1	EC50 (UKE1; UKE1, UKE1): 940 nM; EC50 (MDA-MB-231; [3]): 1580 nM
< 250		CN1CCN(c2ccc(Nc3ncc4ccn(C[C@H]5CCCO5)c4n3)cc2F)CC1	
< 250	4.5	CC(C)S(=O)(=O)Nc1cccc(-n2ccc3cnc(Nc4ccc(N5CCN(C)CC5)c(F)c4)nc32)c1	EC50 (UKE1; UKE1, UKE1): 74 nM; EC50 (MDA-MB-231; [3]): 462 nM
< 250		COc1cc(N2CCN(C)CC2)c(F)cc1Nc1ncc2ccn(CCc3ccccc3)c2n1	
< 250		COc1cc(N2CCN(C)CC2)c(F)cc1Nc1ncc2ccn(-c3cccc(N4CCCS4(=O)=O)c3)c2n1	
< 250		CN1CCN(c2ccc(Nc3ncc4ccn(-c5cccc(N6CCCS6(=O)=O)c5)c4n3)cc2F)CC1	EC50 (UKE1; UKE1, UKE1): 55 nM; EC50 (MDA-MB-231; [3]): 840 nM
< 250	5.2	COc1cc(N2CCN(C)CC2)c(F)cc1Nc1ncc2ccn(-c3ccc(N4CCCS4(=O)=O)cc3)c2n1	EC50 (UKE1; UKE1, UKE1): 1400 nM; EC50 (MDA-MB-231; [3]): 3940 nM
< 250		CN1CCN(c2ccc(Nc3ncc4ccn(CC5CCOCC5)c4n3)cc2F)CC1	
< 250		CC(C)S(=O)(=O)Nc1cccc(-n2ccc3cnc(Nc4cc(F)c(N5CCN(C)CC5)cc4Cl)nc32)c1	
< 250		COc1cc(N2CCN(C)CC2)c(F)cc1Nc1ncc2ccn(-c3cccc(N4CCCCS4(=O)=O)c3)c2n1	EC50 (UKE1; UKE1, UKE1): 1300 nM; EC50 (MDA-MB-231; [3]): 3400 nM
< 250		CN1CCN(c2cc(Cl)c(Nc3ncc4ccn(-c5cccc(N6CCCCS6(=O)=O)c5)c4n3)cc2F)CC1	
< 250	7.6	COc1cc(N2CCN(C)CC2)ccc1Nc1ncc2ccn(-c3cccc(NS(=O)(=O)C(C)C)c3)c2n1	EC50 (UKE1; UKE1, UKE1): 2700 nM; EC50 (MDA-MB-231; [3]): 5150 nM
	6.2	Cc1cc(N2CCN(C)CC2)c(F)cc1Nc1ncc2ccn(-c3cccc(N4CCCCS4(=O)=O)c3)c2n1	
	5.3	CC(C)S(=O)(=O)Nc1ccc(-n2ccc3cnc(Nc4ccc(N5CCN(C)CC5)c(OCCO)c4)nc32)cc1	
	9.3	COc1cc(N2CCN(C)CC2)c(F)cc1Nc1ncc2ccn(-c3ccc(NS(=O)(=O)C(C)C)cc3)c2n1	
	6.1	CC(C)S(=O)(=O)Nc1ccc(-n2ccc3cnc(Nc4ccc(N5CCN(C)CC5)c(F)c4)nc32)cc1	
	6.5	COc1cc(N2CCN(C)CC2)ccc1Nc1ncc2ccn(-c3ccc(NS(=O)(=O)C(C)C)cc3)c2n1	
	7.3	Cc1cc(N2CCN(C)CC2)c(F)cc1Nc1ncc2ccn(-c3ccc(NS(=O)(=O)C(C)C)cc3)c2n1	
	4.4	COc1cc(N2CCN(C)CC2)c(F)cc1Nc1ncc2ccn(-c3ccc(S(=O)(=O)NC(C)C)cc3)c2n1	
	7.7	Cc1cc(N2CCN(C)CC2)c(F)cc1Nc1ncc2ccn(-c3ccc(S(=O)(=O)NC(C)C)cc3)c2n1	
	5.6	CN1CCN(c2ccc(Nc3ncc4ccn(-c5ccc(N6CCCS6(=O)=O)cc5)c4n3)cc2F)CC1	
